The structures appear in SMILES notation.

The test system of this assay is TNF-α. As to the kind of experiment: TNF-α expression inhibition in Raw264.7, comparison with DMARDs, Experiment 2-1. Conditions: 6 h pretreatment, LPS 10 ng/mL, MTX 344 nM, HCQ 610 nM, PYR 50 ng/mL, CsA 391 ng/mL, AZA 25 ng/mL, SFZ 750 ng/mL. The format is cell-based.

As for `O=C(O)c1cc(/N=N/c2ccc(S(=O)(=O)Nc3ccccn3)cc2)ccc1O` [SFZ, Sulfasalazine], the TNF-α expression is reported as 280.7 pg/mL (2hr) and 3578.2 pg/mL (24hr).
The corresponding values for `Cn1cnc([N+](=O)[O-])c1Sc1ncnc2nc[nH]c12` [AZA, Azathioprine] are 405.0 pg/mL and 3539.9 pg/mL.

Source of the values: patent KR20210056931A, “피리메타민을 유효성분으로 포함하는 면역 관련 질환의 치료 또는 예방용 약학 조성물” (priority 2019, dated 2021).
